Experiments:
[1] = system: female CD-1 mice; test: Acute oral toxicity; assay type: in vivo; conditions: female CD-1 mice, oral gavage 2000 mg/kg bw
Description: Acute oral toxicity of salts hydrochloride and fumarate of BTG-1640 was evaluated.
The two salts were dispersed in an aqueous suspension, thus obtaining two formulations, each one orally administered through oesophageous gavage at dose of 2000 mg/kg bw (expressed as free base of BTG 1640) to one of two groups comprising three female CD-1 mice per group.
The observation lasted 14 days.

[2] = Stability test of BTG 1640 salts: purity under preservation conditions; assay type: physicochemical
Description: Samples of 100 mg each of BTG 1640 hydrochloride were subjected to the following preservation conditions:
The purities were then analyzed periodically, initially every three months, in order to underline possible variations.
Samples of 100 mg each of BTG 1640 fumarate prepared according to example 1C were subjected to the following preservation conditions:
Quarterly and in an overall period of nine months its purity was then analyzed in order to underline possible variations. The results in the following Table 3 were obtained:
As comparison other salts of BTG 1640 were prepared, and exactly: • BTG 1640 methanesulphonate • BTG 1640 maleate • BTG 1640 succinate following the procedure indicated in example 1 and substituting methanesolphonic, maleic and succinic acids for fumaric acid.
The stabilities were then evaluated by subjecting samples of 100 mg of each salt to the following analogous preservation conditions:
Quarterly and in an overall period of nine months their purity was then analyzed in order to underline possible variations.
The obtained results, together with those obtained in Example 2 for hydrochloride, in Example 3 for fumarate in order to make easier the comparison, were in Table 5 and represented in FIGS. 5-8.

[3] = Absorption kinetic: plasma concentration of BTG 1640 after oral gavage; assay type: in vivo, rats Sprague Dawley; conditions: rats, oral gavage 10 mg/kg (as free base)
Description: Absorption extent and rate of molecule BTG 1640 in its forms of fumarate and hydrochloride salts were evaluated.
With this intent, the two salts were dispersed in an aqueous suspension of arabic gum at 5% thus obtaining two formulations, each one orally administered through oesophageous gavage at dose of 10 mg/kg (expressed as free base of BTG 1640) to five rats Sprague Dawley.
Plasma concentration of molecule BTG 1640 was determined at different time points.

[4] = Stability test of BTG 1640 salts: evaluation of total impurities; assay type: physicochemical
Description: Contemporaneously, the impurity analysis in the conditions a)-d) of T/% RH were carried out.
As a confirmation of such evidence, a test for the evaluation of the impurity percentage of the sample subjected to the same conditions a)-d) of T/% RH was parallely carried out. The experimental values in Table 4 were obtained.

[5] = T = 25° C., humidity 60% RH, time 0
[6] = T = 25° C., humidity 60% RH, time 3 (months)
[7] = T = 25° C., humidity 60% RH, time 6 (months)
[8] = T = 25° C., humidity 60% RH, time 9 (months)
[9] = T = 25° C., humidity 60% RH, time 12 (months)
[10] = T = 25° C., humidity 60% RH, time 18 (months)
[11] = T = 25° C., humidity 60% RH, time 24 (months)
[12] = T = 25° C., humidity 60% RH, time 36 (months)
[13] = T = 30° C., humidity 65% RH, time 0
[14] = T = 30° C., humidity 65% RH, time 3 (months)
[15] = T = 30° C., humidity 65% RH, time 6 (months)
[16] = T = 30° C., humidity 65% RH, time 9 (months)
[17] = T = 30° C., humidity 65% RH, time 12 (months)
[18] = T = 40° C., humidity 75% RH, time 0
[19] = T = 40° C., humidity 75% RH, time 3 (months)
[20] = T = 40° C., humidity 75% RH, time 6 (months)

For `CN1OC2CCCC(=O)C2C1Cc1ccccc1.Cl` (stereo not shown) [BTG 1640 hydrochloride], the Clinical signs [1] was “Lethargy, ataxia, aggressiveness and vocalization”, the “Histopathological examination of kidneys” value [1] was “small foci of acute tubular necrosis in the cortex, balloon degeneration of the epithelium and dilatation of convoluted tubules” and the Lethality ([1]; 14 days observation) was “lethal in two animals out of three”. The Purity % ([2]; T = 5° C., time 0) was 99.3%, the Purity % ([2]; T = 5° C., time 3 (months)) was 100.1% and the Purity % ([2]; T = 5° C., time 6 (months)) was 100.3%. The Purity % ([2]; T = 5° C., time 9 (months)) was 99.6%, the Purity % ([2]; T = 5° C., time 12 (months)) was 99.6% and the Purity % ([2]; T = 5° C., time 18 (months)) was 100.8%. It also gave a Purity % ([2]; T = 5° C., time 24 (months)) of 98.8%, a Purity % ([2]; T = 5° C., time 36 (months)) of 99.8% and a Purity % [2, 5] of 99.7%. The Purity % [2, 6] was 100.9%, the Purity % [2, 7] was 101.5% and the Purity % [2, 8] was 99.3%. For the same molecule, the Purity % [2, 9] was 101.1%, the Purity % [2, 10] was 100.5% and the Purity % [2, 11] was 99.3%. For the same molecule, the Purity % [2, 12] was 99.5%, the Purity % [2, 13] was 99.7% and the Purity % [2, 14] was 100.0%. For the same molecule, the Purity % [2, 15] was 100.9%, the Purity % [2, 16] was 100.6% and the Purity % [2, 17] was 99.9%. It also gave a Purity % [2, 18] of 99.7%, a Purity % [2, 19] of 93.4% and a Purity % [2, 20] of 81.2%. For the same molecule, the “Stability (in words)” value ([2]; condition d): 40° C. and 75% RH) was “strong instability”, the “Stability (in words)” value ([2]; conditions a)-c): 5° C., 25° C./60% RH, 30° C./65% RH) was “good stability” and the validity time period ([2]; on the basis of the stability results, preserved at 2-8° C.) was 12 months. For the same molecule, the “Stability (in words)” value ([2]; temperatures higher than 30° C.) was “unstable”, the “BTG 1640 free base concentration in plasma” value ([3]; 2 minutes) was 0.7402 µg/mL and the “BTG 1640 free base concentration in plasma” value ([3]; 5 minutes) was 1.4242 µg/mL. The “BTG 1640 free base concentration in plasma” value ([3]; 30 minutes) was 0.2354 µg/mL, the “BTG 1640 free base concentration in plasma” value ([3]; 90 minutes) was 0.1184 µg/mL and the “BTG 1640 free base concentration in plasma” value ([3]; 300 minutes) was 0 µg/mL. For the same molecule, the “% impurities” value ([4]; T = 5° C., time 0) was 0.36%, the “% impurities” value ([4]; T = 5° C., time 3 (months)) was 0.58% and the “% impurities” value ([4]; T = 5° C., time 6 (months)) was 0.45%. For the same molecule, the “% impurities” value ([4]; T = 5° C., time 9 (months)) was 0.31%, the “% impurities” value ([4]; T = 5° C., time 12 (months)) was 0.31% and the “% impurities” value ([4]; T = 5° C., time 18 (months)) was 0.1%. The “% impurities” value ([4]; T = 5° C., time 24 (months)) was 0.21%, the “% impurities” value ([4]; T = 5° C., time 36 (months)) was 0.18% and the “% impurities” value [4, 5] was 0.36%. The “% impurities” value [4, 6] was 0.43%, the “% impurities” value [4, 7] was 0.87% and the “% impurities” value [4, 8] was 0.24%. The “% impurities” value [4, 9] was 0.34%, the “% impurities” value [4, 10] was 0.13% and the “% impurities” value [4, 11] was 0.28%. The “% impurities” value [4, 12] was 0.30%, the “% impurities” value [4, 13] was 0.36% and the “% impurities” value [4, 14] was 0.44%. The “% impurities” value [4, 15] was 0.52%, the “% impurities” value [4, 16] was 0.12% and the “% impurities” value [4, 17] was 0.76%. For the same molecule, the “% impurities” value [4, 18] was 0.36%, the “% impurities” value [4, 19] was 6.99% and the “% impurities” value [4, 20] was 17.31%. The “Impurities (in words)” value ([4]; condition d): 40° C./75% RH) was “unacceptable percentage of impurities”.

From US20100069450A1, “SALT OF 3-BENZYL-2-METHYL-2,3,3A,4,5,6,7, 7A- OCTAHYDROBENZO[D]ISOXAZOL-4-ONE” (ABIOGEN PHARMA S.P.A, priority 2006, published 2010)
